Test results: patent US10131652B2, “Pyrimidinyloxy benzene derivatives as herbicides” (E. I. DU PONT DE NEMOURS AND COMPANY, priority 2014, dated 2018)

Legend:
Format in all cases: in vivo
corn (Zea mays) [1] = assay: Test B pre-/postemergence plant response; conditions: 0 to 100 scale, 0 no effect, 100 complete control
Outline: (§1)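 Visual injury rating, 0 (no effect) to 100 (complete control), vs untreated controls after ~10 d greenhouse. Pre: directed soil spray after planting in loam/sand. Post: plants 2–10 cm, 1–2 leaf stage. Compound in non-phytotoxic solvent plus surfactant.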

[2] = test system: wheat (Triticum aestivum); assay: Test B pre-/postemergence plant response; conditions: 0 to 100 scale, 0 no effect, 100 complete control
Outline: as §1

[3] = test system: barnyardgrass (Echinochloa crus-galli); assay: Test B pre-/postemergence plant response
Outline: as §1

[4] = test system: pigweed (Amaranthus retroflexus); assay: Test B pre-/postemergence plant response
Outline: as §1

[5] = test system: giant foxtail (Setaria faberii); assay: Test B pre-/postemergence plant response
Outline: as §1

[6] = test system: morningglory (Ipomoea coccinea); assay: Test D pre-/postemergence plant response; conditions: Postemergence; for Plant response rating, Morningglory: scale 0 to 100, 0 no effect, 100 complete control
Outline: (§2)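 Sown seed (loam/sand soil) treated preemergence; emerged plants, 1- to 4-leaf stage and 2 to 18 cm, treated postemergence in peat/vermiculite medium. Greenhouse incubation 13–15 d. Endpoint: visual 0–100 rating versus untreated.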

corn (Zea mays) [7] = assay: Test D pre-/postemergence plant response; conditions: Postemergence; for Corn plant response rating: scale 0 to 100 (0 no effect, 100 complete control); for Plant response rating, Corn: scale 0 to 100, 0 no effect, 100 complete control
Outline: as §2

[8] = test system: lambsquarters (Chenopodium album); assay: Test D pre-/postemergence plant response; conditions: Postemergence; for Plant response rating, Lambsquarters: scale 0 to 100, 0 no effect, 100 complete control
Outline: as §2

[9] = test system: blackgrass (Alopecurus myosuroides); assay: Test D pre-/postemergence plant response; conditions: Postemergence; for Blackgrass plant response rating: scale 0 to 100 (0 no effect, 100 complete control); for Plant response rating, Blackgrass: scale 0 to 100, 0 no effect, 100 complete control
Outline: as §2

[10] = test system: Italian ryegrass (Lolium multiflorum); assay: Test D pre-/postemergence plant response; conditions: Postemergence; for Plant response rating, Ryegrass, Italian: scale 0 to 100, 0 no effect, 100 complete control
Outline: as §2

[11] = test system: galium (catchweed bedstraw, Galium aparine); assay: Test D pre-/postemergence plant response; conditions: Postemergence; for Plant response rating, Galium: scale 0 to 100, 0 no effect, 100 complete control
Outline: as §2

[12] = test system: ragweed (common ragweed, Ambrosia elatior); assay: Test D pre-/postemergence plant response; conditions: Postemergence; for Plant response rating, Ragweed: scale 0 to 100, 0 no effect, 100 complete control
Outline: as §2

[13] = test system: barnyardgrass (Echinochloa crus-galli); assay: Test D pre-/postemergence plant response; conditions: Postemergence; for Barnyardgrass plant response rating: scale 0 to 100 (0 no effect, 100 complete control); for Plant response rating, Barnyardgrass: scale 0 to 100, 0 no effect, 100 complete control
Outline: as §2

[14] = test system: pigweed (Amaranthus retroflexus); assay: Test D pre-/postemergence plant response; conditions: Postemergence; for Plant response rating, Pigweed: scale 0 to 100, 0 no effect, 100 complete control
Outline: as §2

[15] = test system: waterhemp (common waterhemp, Amaranthus rudis); assay: Test D pre-/postemergence plant response; conditions: Postemergence; for Plant response rating, Waterhemp: scale 0 to 100, 0 no effect, 100 complete control
Outline: as §2

[16] = test system: giant foxtail (Setaria faberii); assay: Test D pre-/postemergence plant response; conditions: Postemergence; for Foxtail, Giant plant response rating: scale 0 to 100 (0 no effect, 100 complete control); for Plant response rating, Foxtail, Giant: scale 0 to 100, 0 no effect, 100 complete control
Outline: as §2

[17] = 31 g ai/ha, Postemergence, 0 to 100 scale, 0 no effect, 100 complete control
[18] = 31 g ai/ha, Preemergence, 0 to 100 scale where 0 is no effect and 100 is complete control
[19] = 125 g ai/ha, postemergence, 0 to 100 scale, 0 no effect, 100 complete control
[20] = Preemergence, 125 g ai/ha, 0 to 100 scale where 0 is no effect and 100 is complete control
[21] = 31 g ai/ha, scale 0 to 100 (0 no effect, 100 complete control)

Structure (SMILES): FC(F)c1cc(-c2c(Cl)cccc2Oc2ncc(Br)cn2)on1 [Compound 121]
- Plant response rating, Corn (corn (Zea mays) [1]; 31 g ai/ha, Postemergence): 20
- Plant response rating, Corn (corn (Zea mays) [1]; 125 g ai/ha, postemergence): 40
- Plant response rating, Wheat ([2]; 31 g ai/ha, Postemergence): 0
- Plant response rating, Wheat ([2]; 125 g ai/ha, postemergence): 30
- Plant response rating, Barnyardgrass [3, 17]: 50
- Plant response rating, Barnyardgrass [3, 18]: 70
- Plant response rating, Barnyardgrass [3, 19]: 90
- Plant response rating, Barnyardgrass [3, 20]: 90
- Plant response rating, Pigweed [4, 17]: 100
- Plant response rating, Pigweed [4, 18]: 100
- Plant response rating, Pigweed [4, 19]: 100
- Plant response rating, Foxtail, Giant [5, 17]: 70
- Plant response rating, Foxtail, Giant [5, 18]: 100
- Plant response rating, Foxtail, Giant [5, 19]: 90
- Plant response rating, Foxtail, Giant [5, 20]: 100
- Morningglory plant response rating [6, 21]: 75
- Plant response rating, Morningglory ([6]; 62 g ai/ha): 90
- Plant response rating, Morningglory ([6]; 125 g ai/ha): 98
- Corn plant response rating (corn (Zea mays) [7]; 16 g ai/ha): 10
- Corn plant response rating (corn (Zea mays) [7]; 31 g ai/ha): 20
- Plant response rating, Corn (corn (Zea mays) [7]; 62 g ai/ha): 20
- Plant response rating, Corn (corn (Zea mays) [7]; 125 g ai/ha): 25
- Lambsquarters plant response rating [8, 21]: 100
- Plant response rating, Lambsquarters ([8]; 62 g ai/ha): 100
- Plant response rating, Lambsquarters ([8]; 125 g ai/ha): 100
- Blackgrass plant response rating ([9]; 16 g ai/ha): 5
- Blackgrass plant response rating ([9]; 31 g ai/ha): 25
- Plant response rating, Blackgrass ([9]; 62 g ai/ha): 30
- Plant response rating, Blackgrass ([9]; 125 g ai/ha): 50
- Ryegrass, Italian plant response rating [10, 21]: 10
- Plant response rating, Ryegrass, Italian ([10]; 62 g ai/ha): 40
- Plant response rating, Ryegrass, Italian ([10]; 125 g ai/ha): 55
- Galium plant response rating [11, 21]: 90
- Plant response rating, Galium ([11]; 62 g ai/ha): 100
- Plant response rating, Galium ([11]; 125 g ai/ha): 95
- Ragweed plant response rating [12, 21]: 65
- Plant response rating, Ragweed ([12]; 62 g ai/ha): 75
- Plant response rating, Ragweed ([12]; 125 g ai/ha): 98
- Barnyardgrass plant response rating ([13]; 16 g ai/ha): 20
- Barnyardgrass plant response rating ([13]; 31 g ai/ha): 25
- Plant response rating, Barnyardgrass ([13]; 62 g ai/ha): 25
- Plant response rating, Barnyardgrass ([13]; 125 g ai/ha): 45
- Pigweed plant response rating [14, 21]: 98
- Plant response rating, Pigweed ([14]; 62 g ai/ha): 100
- Plant response rating, Pigweed ([14]; 125 g ai/ha): 100
- Waterhemp plant response rating [15, 21]: 95
- Plant response rating, Waterhemp ([15]; 62 g ai/ha): 100
- Plant response rating, Waterhemp ([15]; 125 g ai/ha): 100
- Foxtail, Giant plant response rating ([16]; 16 g ai/ha): 10
- Foxtail, Giant plant response rating ([16]; 31 g ai/ha): 10
- Plant response rating, Foxtail, Giant ([16]; 62 g ai/ha): 15
- Plant response rating, Foxtail, Giant ([16]; 125 g ai/ha): 40
